Read-outs that look alike come from different tables or passages of the source.
Tests used:
[1] = system: Apis mellifera ligustica Spin; conditions: for Death number after 24 h / Death number after 48 h: per replicate of 10 bees
[2] = system: Rhizoctonia cerealis; assay: Fungicidal activity, fungicide growth rate method, RC; assay type: cell-based; conditions: for inhibition at 50 µg/mL: Ceratobasidium cereale, read-out: fungicidal activity (growth inhibition rate), RC
[3] = system: Ostrinia furnacalis; assay: Insecticidal activity against Ostrinia furnacalis; assay type: in vivo; conditions: Ostrinia furnacalis; 100 μg/mL; read-out: insecticidal activity, Ostrinia furnacalis
[4] = system: Helicoverpa armigera (Hübner); assay: Insecticidal activity against Helicoverpa armigera (Hübner); assay type: in vivo; conditions: Helicoverpa armigera; 100 μg/mL; read-out: insecticidal activity, Helicoverpa armigera (Hübner)
[5] = system: Botrytis cinerea; assay: Fungicidal activity, fungicide growth rate method, BC; assay type: cell-based; conditions: Botrytis cinerea, read-out: fungicidal activity (growth inhibition rate), BC
[6] = system: Mythimna separate (Walker); assay: Insecticidal activity against Mythimna separate (Walker); assay type: in vivo; conditions: Mythimna, 100 μg/mL; read-out: insecticidal activity, Mythimna separate (Walker)
[7] = system: Alternaria solani; assay: Fungicidal activity, fungicide growth rate method, AS; assay type: cell-based; conditions: Alternaria solani, read-out: fungicidal activity (growth inhibition rate), AS
[8] = system: Phytophthora infestans (Mont.) de Bary; assay: microbe, parasite or virus in culture; assay type: cell-based; conditions: Phytophthora infestans, read-out: fungicidal activity (growth inhibition rate), PI, 50 μg/mL
[9] = system: Caenorhabditis elegans; assay: Insecticidal activity against Caenorhabditis elegans; assay type: in vivo; conditions: Caenorhabditis elegans, 100 μg/mL; read-out: insecticidal activity, Caenorhabditis elegans
[10] = system: wheat Gibberella zeae; assay: microbe, parasite or virus in culture; assay type: cell-based; conditions: Fusarium graminearum, read-out: fungicidal activity (growth inhibition rate), GZ, 50 μg/mL
[11] = system: Cercospora arachidicola; assay: Fungicidal activity, fungicide growth rate method, CA; assay type: cell-based; conditions: Mycosphaerella arachidis, read-out: fungicidal activity (growth inhibition rate), CA
[12] = system: Pellicularia sasakii; assay: Fungicidal activity, fungicide growth rate method, PS; assay type: cell-based; conditions: read-out: fungicidal activity (growth inhibition rate), PS
[13] = system: Physalospora piricola; assay: Fungicidal activity, fungicide growth rate method, PP; assay type: cell-based; conditions: read-out: fungicidal activity (growth inhibition rate), PP

| Compound | pest or weed control at 100 µg/mL [3] [%] | pest or weed control at 100 µg/mL [4] [%] | inhibition at 50 µg/mL ([5]; 50 μg/mL) [%] | pest or weed control at 100 µg/mL [6] [%] | inhibition at 50 µg/mL ([7]; 50 μg/mL) [%] | inhibition at 50 µg/mL [8] [%] | pest or weed control at 100 µg/mL [9] [%] | inhibition at 50 µg/mL [10] [%] | inhibition at 50 µg/mL ([2]; 50 μg/mL) [%] | inhibition at 50 µg/mL ([11]; 50 μg/mL) [%] | inhibition at 50 µg/mL ([12]; 50 μg/mL) [%] | inhibition at 50 µg/mL ([13]; 50 μg/mL) [%] | further results |
| --- | --- | --- | --- | --- | --- | --- | --- | --- | --- | --- | --- | --- | --- |
| C=CCC1CC2(O)CC(CC=C)C3CC=CCC32O1 (racemic) [Zyj-7-98] | – | – | – | – | – | – | – | – | – | – | – | – | Death rate after 48 h (%) ([1]; dosage 12.0 μg a.i./bee): 0%; Death number after 24 h ([1]; dosage 12.0 μg a.i./bee): 0; Death number after 48 h ([1]; dosage 12.0 μg a.i./bee): 0 |
| O=C1CCC23CC=CCC12O3 (centres unmarked) [Zyj06-39] | 0 | 0 | 36 | 10 | > 60 | 27 | > 30 | – | – | – | – | – | fungicidal activity (growth inhibition rate), RC ([2]; 50 μg/mL): 93% |
| C[Si](C)(C)O[C@]12CC=CC[C@@H]1C=CC2=O [Zyj06-82] | 5 | 5 | – | 25 | – | 16 | 8 | 0 | – | – | – | – | inhibition at 50 µg/mL [2]: 43%; inhibition at 50 µg/mL [11]: 24%; inhibition at 50 µg/mL [12]: 23%; inhibition at 50 µg/mL [5]: > 50%; inhibition at 50 µg/mL [13]: 40%; inhibition at 50 µg/mL [7]: 14% |
| CCOC(=O)C(C(=O)OCC)C1C[C@]2(O)C(C(=O)OCC)C(=O)O[C@@]23CC=CC[C@H]13 (some centres unmarked) [Zyj06-113-3] | 0 | 0 | > 50 | 0 | – | 11 | 5 | 43 | 32 | > 50 | 11 | – | Death rate after 48 h (%) ([1]; dosage 9.87 μg a.i./bee): 0%; Death number after 24 h ([1]; dosage 9.87 μg a.i./bee): 0; Death number after 48 h ([1]; dosage 9.87 μg a.i./bee): 0; Death rate after 48 h (%) ([1]; dosage 15.2 μg a.i./bee): 10.0%; Death number after 24 h ([1]; dosage 15.2 μg a.i./bee): 0; Death number after 48 h ([1]; dosage 15.2 μg a.i./bee): 1 |
| CCOC(=O)C1C(=O)O[C@]23CC=CC[C@@H]2[C@H](OOC(C)(C)C)C[C@]13O (some centres unmarked) [Zyj06-127] | 0 | 0 | 45 | 0 | 7 | 2 | 7 | 36 | 40 | 23 | 4 | 5 | Death rate after 48 h (%) ([1]; dosage 5.40 μg a.i./bee): 0%; Death number after 24 h ([1]; dosage 5.40 μg a.i./bee): 0; Death number after 48 h ([1]; dosage 5.40 μg a.i./bee): 0; Death rate after 48 h (%) ([1]; dosage 7.70 μg a.i./bee): 0%; Death number after 24 h ([1]; dosage 7.70 μg a.i./bee): 0; Death number after 48 h ([1]; dosage 7.70 μg a.i./bee): 0 |
| C=CC[C@@H]1CC(=O)[C@@]2(O)CC=CC[C@H]12 [Zyj06-177] | 0 | 0 | 48 | 0 | 12 | 11 | – | 0 | 61 | 46 | 19 | 11 | Death rate after 48 h (%) ([1]; dosage 8.17 μg a.i./bee): 0%; Death number after 24 h ([1]; dosage 8.17 μg a.i./bee): 0; Death number after 48 h ([1]; dosage 8.17 μg a.i./bee): 0; Death rate after 48 h (%) ([1]; dosage 9.46 μg a.i./bee): 0%; Death number after 24 h ([1]; dosage 9.46 μg a.i./bee): 0; Death number after 48 h ([1]; dosage 9.46 μg a.i./bee): 0 |
| C=CC[C@@H]1C[C@]2(O)CC(=O)O[C@@]23C[C@@H](Cl)[C@H](O)C[C@H]13 [Zyj07-14] | – | – | > 50 | – | 15 | 2 | 20 | 43 | 51 | 31 | 15 | 31 | – |
